Non-standard residues stand in square brackets, D forms with d. Residues, ends and D or L forms follow the SMILES beside them. Primed or numbered codes have the meaning given here. No end group written: not given here. *: point of attachment. PEG20′ = PEG20 chain (pegylated), attached via a cysteine; C16 diacid = O=C(O)CCCCCCCCCCCCCCC(=O)*; Arachidoyl = CCCCCCCCCCCCCCCCCCCC(=O)*; Stearoyl = CCCCCCCCCCCCCCCCCC(=O)*; Palmitoyl = CCCCCCCCCCCCCCCC(=O)*; Myristoyl = CCCCCCCCCCCCCC(=O)*
Tests used:
[1] = Pharmacokinetic of acylated HBD-1 fragment analogs in male Sprague Dawley rats after subcutaneous injection; type: in vivo; settings: Table 24, sc, 1 μmol net peptide/kg
Method: The peptides were reconstituted in saline (0.9% NaCl). Three male Sprague Dawley rats (approximately 6 weeks of age) were used per group. Subcutaneous doses were administered into the right flank of each animal at the target dose level of 1 μmol net peptide/kg. Following dosing, serial whole blood samples (ca. 0.3 mL) were collected from retro-orbital sinus into K2EDTA treated containers. Following each blood sample collection, samples were placed into a cooling block at 4° C. Samples were collected prior to dosing then at 15 and 30 minutes then 1, 2, 4, 6, 8 and 24 hours post dose for subcutaneous injection. Blood samples were centrifuged at 3500×rpm for 10 minutes at 4° C. and resultant plasma aspirated off into clean fully, labelled tubes. Plasma samples were snap frozen following aspiration then stored at −80° C. The peptides were extracted with acetonitrile:water (75:25, v/v) and analyzed using developed LC-MS/MS methods as described in Example 9. The limits of detection of these methods are 0.003 nmol/mL for HBD1 (1-13) with palmitic acid at the N-terminus (C16:0), 0.0008 nmol/mL for HBD1 (3-11) with palmitic acid at the N-terminus (C16:0), 0.0070 nmol/mL for HBD1 (3-11) with stearic acid at the N-terminus (C18:0), and 0.0015 nmol/mL for HBD1 (3-11) with myristic acid at the N-terminus (C14:0), HBD1 (3-11) with arachidic acid at the N-terminus (C20:0), HBD1 (3-11) with palmitic diacid at the N-terminus (C16:0-diacid), HBD1 (3-11) with palmitic acid at the C-terminus (C16:0). All values below these limits of quantification were considered as zero.

[2] = system: MC-3T3 E1 clone 4 (CL4) osteoblast cells; assay: in vitro osteoblast differentiation bioassay (stimulation of osteocalcin protein synthesis); type: cell-based
Method: Each peptide was tested in a biologic assay measuring its ability to stimulate differentiation of osteoblast cells over a 18-21 day interval (Table 8) or a 14-15 day interval (Table 9) as assessed by the stimulation of osteocalcin protein synthesis. MC-3T3 E1 clone 4 (CL4) osteoblast cells were obtained from ATCC (Manassas, Va., USA). Cells were cultured in α-MEM containing 10% fetal bovine serum (FBS; Thermo Fisher Scientific, Pittsburgh, Pa., USA). After confluency, culture medium was changed to differentiation medium (DM), which contained 10% FBS plus 50 μg/mL ascorbic acid and 4 mM β-glycerol phosphate, with or without a test peptide (1 μg/mL in Table 8 or 1 μmol/L in Table 9). Fresh DM, with or without test peptide, was applied every 72 hours. The cell monolayers were lysed in a modified radioimmunoprecipitation assay (RIPA) buffer. Total cellular protein in the lysates was determined using BCA (Thermo Fisher Scientific, Rockford, Ill., USA). Cell proteins are separated on SDS-PAGE gel and transferred on PVDF membrane for analysis. Osteocalcin detection was performed using anti-osteocalcin antibody at 1:200 dilution (Santa Cruz Biotechnology, Inc, Santa Cruz, Calif., USA) or at 1:3000 dilution (NPT Inc., Chapel Hill, N.C., USA) and visualized using enhanced chemiluminescence (Thermo Fisher Scientific, Rockford, Ill., USA).
The peptide was tested at different concentrations in a biologic assay measuring its ability to stimulate differentiation of osteoblast cells over a 18 day interval as assessed by the stimulation of osteocalcin protein synthesis. MC-3T3 E1 clone 4 (CL4) osteoblast cells were obtained from ATCC (Manassas, Va., USA). Cells were cultured in α-MEM containing 10% fetal bovine serum (FBS; Thermo Fisher Scientific, Pittsburgh, Pa., USA). After confluency, culture medium was changed to differentiation medium (DM), which contained 10% FBS plus 50 μg/mL ascorbic acid and 4 mM β-glycerol phosphate, with or without an ascending dose of the peptide from 0.1 μg/mL to 4 μg/mL. Fresh DM, with or without the peptide, was applied every 72 hours. The cell monolayers were lysed in a modified radioimmunoprecipitation assay (RIPA) buffer. Total cellular protein in the lysates was determined using BCA (Thermo Fisher Scientific, Rockford, Ill., USA). Cell proteins are separated on SDS-PAGE gel and transferred on PVDF membrane for analysis. Osteocalcin detection was performed using anti-osteocalcin antibody at 1:200 dilution (Santa Cruz Biotechnology, Inc, Santa Cruz, Calif., USA) and visualized using enhanced chemiluminescence (Thermo Fisher Scientific, Rockford, Ill., USA).
Each peptide was tested in a biologic assay measuring its ability to stimulate differentiation of osteoblast cells over a 15 day interval as assessed by the stimulation of osteocalcin protein synthesis. MC-3T3 E1 clone 4 (CL4) osteoblast cells were obtained from ATCC (Manassas, Va., USA). Cells were cultured in α-MEM containing 10% fetal bovine serum (FBS; Thermo Fisher Scientific, Pittsburgh, Pa., USA). After confluency, culture medium was changed to differentiation medium (DM), which contained 10% FBS plus 50 μg/mL ascorbic acid and 4 mM β-glycerol phosphate, with or without a test peptide (1 μg/mL). Fresh DM, with or without test peptide, was applied every 72 hours for 15 days. The cell monolayers were lysed in a modified radioimmunoprecipitation assay (RIPA) buffer. Total cellular protein in the lysates was determined using BCA (Thermo Fisher Scientific, Rockford, Ill., USA). Cell proteins are separated on SDS-PAGE gel and transferred on PVDF membrane for analysis. Osteocalcin detection was performed using anti-osteocalcin antibody at 1:200 dilution (Santa Cruz Biotechnology, Inc, Santa Cruz, Calif., USA) and visualized using enhanced chemiluminescence (Thermo Fisher Scientific, Rockford, Ill., USA). […]

[3] = Stability of HBD1 fragments in human plasma; type: in vitro ADME; settings: 24 and 48 hours incubation at 37° C.
Method: The peptides were spiked at 1 μg/mL (peptide backbone) into pre-warmed human K2EDTA plasma (at 37° C.) and incubated for up to 48 hours. Aliquots of plasma were extracted at specific time points (0, 24 and 48 hours post spike). Extraction was performed with acetonitrile:water (75:25, v/v) for HBD1 (1-13), HBD1 (1-13) with palmitic acid at the N-terminus (C16:0), HBD1 (3-11) with palmitic acid at the N-terminus (C16:0)) and HBD1 (3-11) with stearic acid at the N-terminus (C18:0) or with acetonitrile:water:formic acid (75:25:0.1, v/v/v) for HBD1 (3-11) and cyclic HBD1 (3-11). The peptides were analyzed using developed LC (C18 reverse phase column)—positive ion electrospray MS/MS methods specific to each peptide. The peak area at each time point was expressed as a percentage of the value obtained for the t=0 minutes time point.

[4] = Table 17, PEGylated fragments, 2 μg/mL, 18-21 day interval

Compound | Tlast (last time point with detectable peptide) [1] [h] | Fold increase vs DM ± SE [2, 4] [fold] | other results
CCCCCCCCCCCCCCCCCCCC(=O)N[C@@H](Cc1c[nH]cn1)C(=O)N[C@@H](CC(C)C)C(=O)NCC(=O)N[C@@H](CC(C)C)C(=O)N[C@@H](CCC(=O)O)C(=O)N[C@@H](CCC(=O)O)C(=O)N1CCC[C@H]1C(=O)N[C@@H](CCCCN)C(=O)N[C@@H](CCCCN)C(=O)O [compound 74] (Arachidoyl-HLGLEEPKK-OH; C-terminus assumed) | 8 | – | –
CCCCCCCCCCCCCCCC(=O)NCCCC[C@H](NC(=O)[C@H](CCCCN)NC(=O)[C@@H]1CCCN1C(=O)[C@H](CCC(=O)O)NC(=O)[C@H](CCC(=O)O)NC(=O)[C@H](CC(C)C)NC(=O)CNC(=O)[C@H](CC(C)C)NC(=O)[C@@H](N)Cc1c[nH]cn1)C(=O)O [compound 76] (H-HLGLEEPKK(Palmitoyl)-OH; N-terminus and C-terminus assumed) | 8 | – | –
CCCCCCCCCCCCCCCCCC(=O)N[C@@H](Cc1c[nH]cn1)C(=O)N[C@@H](CC(C)C)C(=O)NCC(=O)N[C@@H](CC(C)C)C(=O)N[C@@H](CCC(=O)O)C(=O)N[C@@H](CCC(=O)O)C(=O)N1CCC[C@H]1C(=O)N[C@@H](CCCCN)C(=O)N[C@@H](CCCCN)C(=O)O [compound 73] (Stearoyl-HLGLEEPKK-OH) | 8 | – | Fold increase vs DM ± SE ([2]; Table 19, dose 1.0 μM, 18 day interval): 3.46 ± 0.47 fold; Fold increase vs DM ± SE ([2]; Table 19, dose 2.0 μM, 18 day interval): 4.48 ± 0.07 fold; Fold increase vs DM ± SE ([2]; Table 19, dose 3.0 μM, 18 day interval): 5.66 ± 0.45 fold; stability in human plasma (in words) [3]: plasma stability profile similar to that of the corresponding unconjugated linear peptide HBD1 (3-11)
63 ([PEG20′]CKHHLGLEEPKKLR; not fully specified (some residues); printed as PEG20-C-KHHLGLEEPKKLR) [compound 63] | – | 1.4 ± 0.3 | –
CCCCCCCCCCCCCCCC(=O)N[C@@H](CCCCN)C(=O)N[C@@H](Cc1c[nH]cn1)C(=O)N[C@@H](Cc1c[nH]cn1)C(=O)N[C@@H](CC(C)C)C(=O)NCC(=O)N[C@@H](CC(C)C)C(=O)N[C@@H](CCC(=O)O)C(=O)N[C@@H](CCC(=O)O)C(=O)N1CCC[C@H]1C(=O)N[C@@H](CCCCN)C(=O)N[C@@H](CCCCN)C(=O)N[C@@H](CC(C)C)C(=O)N[C@@H](CCCNC(=N)N)C(=O)O [compound 78] (Palmitoyl-KHHLGLEEPKKLR-OH) | 8 | – | –
64 (KHHLGLEEPKKLR; not fully specified; MOD_RES (13)..(13) Pegylated) [compound 64] | – | 2.2 ± 0.4 | –
CC(C)C[C@H](NC(=O)CNC(=O)[C@H](CC(C)C)NC(=O)[C@H](Cc1c[nH]cn1)NC(=O)CCCCCCCCCCCCCCC(=O)O)C(=O)N[C@@H](CCC(=O)O)C(=O)N[C@@H](CCC(=O)O)C(=O)N1CCC[C@H]1C(=O)N[C@@H](CCCCN)C(=O)N[C@@H](CCCCN)C(=O)O [compound 75] ({C16 diacid}-HLGLEEPKK-OH; C-terminus assumed) | 8 | – | –
66 (HHLGLEEPKK; not fully specified; MOD_RES (10)..(10) Pegylated) [compound 66] | – | 2.2 ± 0.2 | –
CCCCCCCCCCCCCC(=O)N[C@@H](Cc1c[nH]cn1)C(=O)N[C@@H](CC(C)C)C(=O)NCC(=O)N[C@@H](CC(C)C)C(=O)N[C@@H](CCC(=O)O)C(=O)N[C@@H](CCC(=O)O)C(=O)N1CCC[C@H]1C(=O)N[C@@H](CCCCN)C(=O)N[C@@H](CCCCN)C(=O)O [compound 71] (Myristoyl-HLGLEEPKK-OH; C-terminus assumed) | 6 | – | –
CC(C)C[C@@H]1NC(=O)CNC(=O)[C@H](CC(C)C)NC(=O)[C@H](Cc2c[nH]cn2)NC(=O)[C@H](CCCCN)NC(=O)[C@H](CCCCN)NC(=O)[C@@H]2CCCN2C(=O)[C@H](CCC(=O)O)NC(=O)[C@H](CCC(=O)O)NC1=O [compound 77] (cyclo(EEPKKHLGL)) | – | – | stability in human plasma (in words) [3]: plasma stability profile similar to that of the corresponding unconjugated linear peptide HBD1 (3-11)
67 ([PEG20′]CHLGLEEPKK; not fully specified (some residues); printed as PEG20-C-HLGLEEPKK) [compound 67] | – | 1.9 ± 0.2 | –
CCCCCCCCCCCCCCCC(=O)N[C@@H](Cc1c[nH]cn1)C(=O)N[C@@H](CC(C)C)C(=O)NCC(=O)N[C@@H](CC(C)C)C(=O)N[C@@H](CCC(=O)O)C(=O)N[C@@H](CCC(=O)O)C(=O)N1CCC[C@H]1C(=O)N[C@@H](CCCCN)C(=O)N[C@@H](CCCCN)C(=O)O [compound 72] (Palmitoyl-HLGLEEPKK-OH) | 8 | – | stability in human plasma (in words) [3]: plasma stability profile similar to that of the corresponding unconjugated linear peptide HBD1 (3-11)
65 ([PEG20′]CHHLGLEEPKK; not fully specified (some residues); printed as PEG20-C-HHLGLEEPKK) [compound 65] | – | 1.4 ± 0.1 | –
